Test results published in patent US20200102349A1, “PEPTIDE REAGENTS AND METHODS FOR DETECTION AND TARGETING OF DYSPLASIA, EARLY CANCER AND CANCER” (THE REGENTS OF THE UNIVERSITY OF MICHIGAN, priority 2014, published 2020).

How the values were obtained:
[1] = biological target: EGFR (Homo sapiens, UniProt P00533); test: siRNA knockdown of EGFR in HT29 cells, confocal fluorescence microscopy; assay type: cell-based; design: endogenous in cells; host or cells: HT29 human colorectal adenocarcinoma cells (ATCC)
Protocol: HT29, SW480, and SW620 cells (˜10^3) were grown on cover slips to ˜80% confluence. The cells were washed 1× with PBS and incubated with 5 μM of QRH*-Cy5.5 and PEH*-Cy5.5 for 3 min at RT. The cells were then washed 3× in PBS, fixed with 4% paraformaldehyde (PFA) for 5 min, washed 1× with PBS, and then mounted on glass slides with ProLong Gold reagent containing DAPI (Invitrogen). Confocal fluorescence images were collected with FITC, Cy5.5, and DAPI filters (Leica Inverted SPSX Confocal Microscope System) using a 63× oil-immersion objective. Fluorescence intensities from 5 cells in 2 independent images were quantified using custom Matlab (Mathworks) software.
We used siRNA to knockdown expression of EGFR in HT29 cells. We used ON-TARGETplus human EGFR siRNA and ON-TARGETplus non-targeting pool (Thermo Scientific) per manufacturer's protocol. 5 μL of siRNA at 5 μM/L concentration was transfected into HT29 cells using DharmaFECT (Thermo Scientific). QRH*-Cy5.5 and PEH*-Cy5.5 were incubated with HT29 siEGFR and siCL cells. The cells were fixed with either 4% PFA or methanol. A 1:1000 dilution of primary monoclonal mouse anti-EGFR antibody (Thermo Scientific, # MS-396, clone 199.12, IgG2a isotype) was incubated overnight at 4° C. Afterwards, the cells were washed 3× with PBS, and further incubated with 1:500 dilution of AF488-labeled secondary goat anti-mouse IgG antibody (Life Technologies, # A-11029) for 1 hour at RT, washed 3×, and then mounted on glass slides with ProLong Gold reagent containing DAPI (Invitrogen). Confocal fluorescence images were collected with FITC, Cy5.5, and DAPI filters using a 63× oil-immersion objective.
We validated specific binding of QRH*-Cy5.5 to EGFR on siRNA knockdown in HT29 cells. On confocal microscopy, QRH*-Cy5.5 (red), FIG. 2A, and AF488-labeled anti-EGFR (green), FIG. 2B, bind strongly to the surface (arrows) of control HT29 cells (transfected with siCL, non-targeting siRNA), scale bars 30 μm. […] The results (mean±std) for QRH*-Cy5.5, anti-EGFR AF488, and PEH*-Cy5.5 to control cells (siCL) were 7.8±1.7, 3.1±1.0, and 1.6±0.3 AU, respectively, and to EGFR knockdown cells (siEGFR) were 2.5±0.8, 1.0±0.4, and 1.9±0.7 AU, respectively, *P<0.01 by paired t-test, FIG. 2G. Results are an average of 10 cells from 2 images performed independently. EGFR expression is shown on Western blot, FIG. 12H.

[2] = system: high-grade dysplasia in human esophagus; test: Binding of QRH*-Cy5.5 to high-grade dysplasia in human esophagus
[3] = system: HT29, SW480, and SW620 cells; test: Flow cytometry binding to colorectal cancer cells; assay type: cell-based, human; conditions: 5 μM, 1 hour, 4° C.
Protocol: HT29, SW480, and SW620 cells were grown to confluence and detached with enzyme-free, PBS-based cell dissociation buffer (Gibco, #13151-014) and cell scrapper. The cells were centrifuged at 1500 rpm for 5 min at 4° C., and then blocked with 0.5% BSA in PBS for 30 min on ice and washed with PBS. […] were incubated with 5 μM of either QRH*-Cy5.5 or PEH*-Cy5 for 1 hour at 4° C. with mixing. Cells incubated with PBS alone were used as control. The cells were centrifuged again, washed 3× with cold PBS, and fixed on ice with 4% PFA for 10 min. Flow cytometry was performed with ˜10^4 cells/sample (BD® LSRII, BD Biosciences), and analyzed with the Flowjo software (Tree Star Inc).

## QRHKPRE (SEQ ID NO: 1) with Cy5.5 fluorophore attached via a GGGSK linker (SEQ ID NO: 18) on the C-terminus [QRH*-Cy5.5]
[1]; EGFR knockdown HT29 cells (siEGFR)
  fluorescence intensity (mean±std): 2.5±0.8 AU
[1]; control HT29 cells (siCL, non-targeting siRNA)
  fluorescence intensity (mean±std): 7.8±1.7 AU
[2]
  staining of high-grade dysplasia (HGD): Intense staining
[3]
  binding on flow cytometry compared with control peptide: stronger binding to each cell than PEH*-Cy5.5
